Assay results taken from patent US9725683B2, “Surfactants and methods of making and using same” (priority 2013, dated 2017).

Assays:
[1] = Surface Tension Test Method (Kruss K12 tensiometer, Wilhelmy plate); assay type: physicochemical
Description: Surface Tension Test Method
Surface tension was measured using a K12 process tensiometer (available from Kruss GmbH of Hamburg, Germany) using a Wilhemly plate method with a platinum PL01 plate (available from Krüss GmbH). Forty milliliters of the solution to be tested were placed in a 60 mL glass snap cap jar with an inner diameter of approximately 1.5 inches.

[2] = Solubility of neutral fluorinated surfactants in water at 22° C. (capillary GC of saturated solutions); assay type: physicochemical; conditions: pure deionized water
Description: Various neutral fluorinated surfactants were tested to determine their solubility in pure deionized water.

[3] = aqueous ammonium hydroxide, mole ratio 2.0, same concentrations
[4] = aqueous TMAH, mole ratio 1.0, equivalent concentrations
[5] = aqueous TMAH, mole ratio 2.0, same concentrations

Row | Structure (SMILES) | Surface tension in water compared [1, 3] | % Soluble in water at 22 Deg C. [2] | melting point [°C] | Surface tension in water compared [1, 4] | Surface tension in water compared [1, 5]
1 | O=S(=O)(NCCO)C(F)(F)C(F)(F)C(F)(F)C(F)(F)F [A, reference compound] | roughly equivalent surface tensions | – | – | – | –
2 | O=S(=O)(N(CCO)CCO)C(F)(F)C(F)(F)C(F)(F)C(F)(F)F [B, reference compound] | – | 0.0592% | – | – | –
3 | CN(CCO)S(=O)(=O)C(F)(F)C(F)(F)C(F)(F)C(F)(F)F [C, reference compound] | – | 0.118% | – | – | –
4 | CC(O)CNS(=O)(=O)C(F)(F)C(F)(F)C(F)(F)C(F)(F)F (centres unmarked) [I, C4F9SO2N(H)CH2CH(CH3)OH] | roughly equivalent surface tensions | – | 80.33 | – | –
5 | O=S(=O)(NCCOCCO)C(F)(F)C(F)(F)C(F)(F)C(F)(F)F [III, C4F9SO2N(H)CH2CH2OCH2CH2OH] | lower surface tension in water than the H-FBSE | – | 35.7 | significantly lower surface tensions than H-FBSE | significantly lower surface tension in water than H-FBSE
6 | O=S(=O)(N(CCOCCO)CCOCCO)C(F)(F)C(F)(F)C(F)(F)C(F)(F)F [IV, C4F9SO2N(CH2CH2OCH2CH2OH)2] | – | 0.101% | – | – | –
7 | O=S(=O)(N(CCO)CCOCCO)C(F)(F)C(F)(F)C(F)(F)C(F)(F)F [V, C4F9SO2N(CH2CH2OCH2CH2OH)(CH2CH2OH)] | – | 100 (miscible)^ % | 45.1 | – | –
8 | CN(CCOCCO)S(=O)(=O)C(F)(F)C(F)(F)C(F)(F)C(F)(F)F [VI, C4F9SO2N(CH3)(CH2CH2OCH2CH2OH)] | – | 0.232% | 80.5 | – | –
9 | O=S(=O)(NCCOCCOCCO)C(F)(F)C(F)(F)C(F)(F)C(F)(F)F [VIII, C4F9SO2NH(CH2CH2OCH2CH2OCH2CH2OH)] | lowest surface tension in water of all the materials tested | – | – | significantly lower surface tensions than H-FBSE | significantly lower surface tension in water than H-FBSE
